ChEMBL document CHEMBL5137062, “Overview of Methionine Adenosyltransferase 2A (MAT2A) as an Anticancer Target: Structure, Function, and Inhibitors” (J Med Chem, 2022)
Each block holds one molecule with its values, some of them ahead of it.

Tests used:
[1] = target: S-adenosylmethionine synthase isoform type-1 (Homo sapiens) (UniProt Q00266); experiment: Inhibition of N-terminal TEV cleavable 6His-tagged human MAT1A (1 to 334 residues) expressed in Escherichia coli BL21 (DE3) cells assessed as S-adenosyl methionine production using L-methionine as substrate incubated for 30 mins followed by L-methionine and ATP addition by MS/MS analysis relative to control
Chain of S-adenosylmethionine synthase isoform type-1 (Homo sapiens) (Q00266 whole entry, the tested form may be a part, canonical isoform): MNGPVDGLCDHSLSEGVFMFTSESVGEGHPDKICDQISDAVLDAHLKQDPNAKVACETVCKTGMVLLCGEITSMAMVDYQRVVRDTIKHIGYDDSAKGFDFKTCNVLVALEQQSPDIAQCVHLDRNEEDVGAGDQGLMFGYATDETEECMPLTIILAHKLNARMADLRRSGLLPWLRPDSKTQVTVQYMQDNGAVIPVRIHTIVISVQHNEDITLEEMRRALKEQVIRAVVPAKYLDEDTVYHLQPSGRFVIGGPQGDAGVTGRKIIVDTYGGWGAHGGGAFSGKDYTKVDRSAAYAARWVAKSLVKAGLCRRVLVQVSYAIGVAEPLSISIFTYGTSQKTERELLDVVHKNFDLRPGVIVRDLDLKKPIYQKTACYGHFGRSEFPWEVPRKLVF

[2] = target: T1, S-adenosylmethionine synthase isoform type-2 (Homo sapiens, UniProt P31153); experiment: Inhibition of N-terminal TEV cleavable 6His-tagged human MAT2A (1 to 395 residues) expressed in Escherichia coli BL21 (DE3) cells assessed as S-adenosyl methionine production using L-methionine as substrate incubated for 30 mins followed by L-methionine and ATP addition by MS/MS analysis
T1 sequence (P31153 whole entry, the tested form may be a part, canonical isoform): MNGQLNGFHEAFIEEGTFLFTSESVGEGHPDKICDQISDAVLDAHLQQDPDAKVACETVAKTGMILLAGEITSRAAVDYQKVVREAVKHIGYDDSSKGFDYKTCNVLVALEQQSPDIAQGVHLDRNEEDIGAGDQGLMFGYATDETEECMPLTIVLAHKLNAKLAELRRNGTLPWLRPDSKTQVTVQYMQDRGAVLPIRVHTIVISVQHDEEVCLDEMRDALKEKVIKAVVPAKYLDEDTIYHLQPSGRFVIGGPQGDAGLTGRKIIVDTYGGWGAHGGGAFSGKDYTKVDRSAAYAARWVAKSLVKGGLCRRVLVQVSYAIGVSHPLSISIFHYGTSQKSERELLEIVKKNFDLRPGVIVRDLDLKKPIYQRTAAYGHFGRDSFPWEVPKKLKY

[3] = target: T1, S-adenosylmethionine synthase isoform type-2; experiment: Inhibition of MAT2A in human NCI-H520 cells transfected with MAT2A empty vector assessed as inhibition of S-adenosyl methionine production measured after 6 hrs by Rapid Fire Mass Spectrometry analysis; format: cell-based
[4] = target: T1, S-adenosylmethionine synthase isoform type-2; experiment: Inhibition of MAT2A in human Huh-7 cells assessed as inhibition of S-adenosyl methionine production measured after 6 hrs by Rapid Fire Mass Spectrometry analysis; format: cell-based
[5] = target: T1, S-adenosylmethionine synthase isoform type-2; experiment: Inhibition of MAT2A (unknown origin) assessed as S-adenosyl methionine production using L-methionine as substrate pretreated for 60 mins followed by L-methionine and ATP addition
[6] = target: T1, S-adenosylmethionine synthase isoform type-2; experiment: Inhibition of human MAT2A expressed in baculovirus infected Sf9 cells expression system assessed as S-adenosyl methionine production using L-methionine as substrate pretreated for 60 mins followed by L-methionine and ATP addition
HCT-116 [7] = experiment: Antiproliferative activity against human HCT-116 cells expressing MTAP assessed as cell growth inhibition incubated for 24 hrs by Cell Titer Glo analysis; format: functional, cell-based; conditions: HCT-116, 24 h
[8] = target: T1, S-adenosylmethionine synthase isoform type-2; experiment: Inhibition of human recombinant His-tagged MAT2A expressed in Escherichia coli expression system assessed as S-adenosyl methionine production using L-methionine as substrate incubated for 20 mins followed by L-methionine and ATP addition by malachite green phosphate assay
[9] = target: T1, S-adenosylmethionine synthase isoform type-2; experiment: Inhibition of human MAT2A assessed as S-adenosyl methionine production using L-methionine as substrate pretreated for 60 mins followed by L-methionine and ATP addition by colorimetric analysis
[10] = Inhibition of rat novikoff liver hepatoma MAT isozymes assessed as S-adenosyl methionine production using L-methionine as substrate in presence of ATP; format: tissue-based
[11] = Inhibition of rat liver MAT isozymes assessed as S-adenosyl methionine production using L-methionine as substrate in presence of ATP; format: tissue-based
[12] = Antiproliferative activity against human HCT116-MTAP null cells assessed as cell growth inhibition measured after 6 days by Cell Titer Glo analysis; format: functional, cell-based; conditions: 144 h
HCT-116 [13] = experiment: Antiproliferative activity against human HCT-116 cells expressing MTAP assessed as cell growth inhibition measured after 6 days by Cell Titer Glo analysis; format: functional, cell-based; conditions: HCT-116, 144 h
[14] = Antiproliferative activity against human HCT116-MTAP null cells assessed as cell growth inhibition incubated for 92 hrs by In-cell western analysis; format: functional, cell-based

SMILES: CCOc1ncc2cc(-c3ccc(OC)cc3C)c(=O)n(-c3ccc(OC(F)F)cc3)c2n1
IC50 [5]: 0.0701 µM

SMILES: COc1ccc(-c2c(=O)n(-c3ccc4ncsc4c3)nc3ccc(OCC(F)F)nc23)cc1
IC50 [6]: < 0.1 µM
IC50 (HCT-116 [7]): > 1 µM

SMILES: Cc1cc(C)c(-c2cnc(NC(=O)c3cccc(Cn4cccn4)c3)n2C)cc1C
IC50 [9]: < 0.5 µM

SMILES: NC1(C(=O)O)CCCC1 [CYCLOLEUCINE]
IC50 [10]: 209 µM
IC50 [3]: 5600 µM
IC50 [4]: 1300 µM
IC50 [11]: 209 µM

SMILES: CCNc1ccc2nn(-c3ccc4nn(C)cc4c3)c(=O)c(-c3ccc(Cl)cc3)c2n1
IC50 [6]: < 0.1 µM
IC50 (HCT-116 [7]): > 1 µM

SMILES: COc1ccc(N2C(=O)N(c3ccc4nn(C)cc4c3)Cc3cnc(NCC(F)(F)F)nc32)cc1
IC50 [6]: < 0.1 µM
IC50 (HCT-116 [7]): > 1 µM

SMILES: CN(C)c1ccc(/C=C/c2c(F)cccc2F)cc1
IC50 [8]: 4.9 µM

SMILES: [2H]C([2H])([2H])Oc1ccc(N2C(=O)N(c3ccc4nn(C)cc4c3)Cc3cnc(OCC(F)F)nc32)cc1
IC50 [6]: < 0.1 µM
IC50 (HCT-116 [7]): > 1 µM

SMILES: CCOc1ncc2cc(-c3ccc4ncn(C)c4c3)c(=O)n(-c3ccc(OC(F)F)cc3)c2n1
IC50 [12]: 0.0844 µM
IC50 [5]: 0.0195 µM
IC50 (HCT-116 [13]): 3.8 µM

More lines, main results first:

inhibition [1]: 50%
IC50 [2]: 0.42 µM
IC50 [3]: 1.2 µM
IC50 [4]: 0.225 µM
SMILES: CN(C)CCc1nnc2cc(-c3ccccc3)c3cc(Cl)ccc3n12

IC50 [6]: < 0.1 µM
IC50 (HCT-116 [7]): > 1 µM
SMILES: COc1ccc(N2Cc3ccc(NCC(F)(F)F)nc3N(c3ccc(-c4ncn[nH]4)cc3)C2=O)cc1

IC50 [8]: 2.1 µM
SMILES: CNc1ccc(/C=C/c2c(F)cccc2Cl)cc1

IC50 [5]: 0.0047 µM
SMILES: CCOc1ncc2cc(C3=CC4N=C(CCN5CCC(O)C5)N(C)C4C=C3)c(=O)n(-c3ccc(OC(F)F)cc3)c2n1 (stereo not given)

IC50 [5]: 0.0365 µM
IC50 (HCT-116 [13]): > 10 µM
SMILES: Cn1cnc2ccc(-c3cc4cnc(NCC(F)(F)F)nc4n(-c4ccc(OC(F)F)cc4)c3=O)cc21
IC50 [12]: 0.102 µM

IC50 [9]: < 0.5 µM
SMILES: Cc1cc(C)c(-c2cnc(NC(=O)c3cccc(Cn4ccccc4=O)c3)n2C)cc1Br

IC50 [9]: < 0.5 µM
SMILES: Cc1cc(-c2cnc(NC(=O)c3cccc(CN4CCCC4=O)c3)n2C)ccc1O

IC50 [6]: 0.008 µM
SMILES: Cc1cc(=O)n2nc(C)c(-c3ccccc3)c2[nH]1
IC50 [14]: 0.009 µM

IC50 [6]: < 0.1 µM
IC50 (HCT-116 [7]): > 1 µM
SMILES: CCNc1ccc2nn(-c3ccc4nc(C)n(C)c4c3)c(=O)c(-c3ccc(C(F)F)cc3)c2n1
